Experimental data from patent publication US5481013A, “Carboxylic acid derivatives” (Ciba-Geigy Corporation, priority 1992, dated 1996).

Columns and labels:
Type in all cases: in vivo
Dermanyssus gallinae = assay: Activity against Dermanyssus gallinae; details: 72 h, 10 ppm solution, mites in different development stages, after 3 days
Procedure: 2 to 3 ml of a solution comprising 10 ppm of active ingredient and approximately 200 mites in different development stages are placed into a glass container which is open at the top. The container is then sealed with a cottonwool ball, shaken for 10 minutes until the mites are wetted completely, and then briefly turned over so that the remaining test solution can be absorbed by the cottonwool. After 3 days, the mortality of the mites is determined by counting the dead individuals; it is given as a percentage.

Heliothis virescens = assay: Ovicidal/larvicidal activity on Heliothis virescens; details: 192 h, 400 ppm spray on eggs deposited on cotton, evaluated after 8 days, read-out: % reduction in population (hatching percentage of eggs and survival rate of caterpillars)
Procedure: Heliothis eggs which have been deposited on cotton are sprayed with a spray mixture prepared with an aqueous emulsion and comprising 400 ppm of the active ingredient. After 8 days, the hatching percentage of the eggs and the survival rate of the caterpillars are evaluated by comparing them with untreated control batches (% reduction in population).

Ctenocephalides felis = assay: Activity against Ctenocephalides felis; details: 504 h, 100 ppm in flea larvae nutrient medium, flea eggs, checked after 21 days
Procedure: 20 to 25 flea eggs are placed into a horizontally positioned 50 ml tissue culture flask into which 15 g of flea larvae nutrient medium comprising 100 ppm of the active ingredient to be tested have previously been introduced. The test flasks are incubated in an incubator at 26° to 27° C. and an atmospheric humidity of 60-70%. After 21 days, the flasks are checked for the presence of adult fleas, unhatched pupae and larvae.

[1] = tested on: Panonychus ulmi (OP- and carb.- resistant); assay: Activity against Panonychus ulmi (OP- and carb.- resistant); details: 336 h, 400 ppm spray on apple seedlings, evaluated after 14 days, read-out: percentage reduction in population (% activity)
Myzus persicae = assay: Systemic activity against Myzus persicae; details: roots of pea seedlings in 400 ppm spray mixture, 20° C., evaluated after 3 and 6 days, read-out: percentage reduction in population (% activity)
Procedure: Pea seedlings are infected with Myzus persicae, the roots of the plants are then placed into a spray mixture comprising 400 ppm of the active ingredient, and the plants are incubated at 20° C. The test is evaluated after 3 and 6 days. The percentage reduction in population (% activity) is determined by comparing the number of dead aphids on the treated plants with those on the untreated plants.

O=C(CC=C(F)F)OCCOc1ccc(Oc2ccccc2)cc1 [Compound 1.01, 2-(4-phenoxyphenoxy)ethyl-4,4-difluorobut-3-enoate]
> 80%: mortality at 10 ppm (Dermanyssus gallinae) | pest or weed control at 400 ppm (Heliothis virescens) | pest or weed control at 100 ppm (Ctenocephalides felis) | activity at 400 ppm [1] | activity at 400 ppm (Myzus persicae)

O=C(CCCCCC=C(F)F)OCCOc1ccc(Oc2ccccc2)cc1 [Compound 3.01]
> 80%: pest or weed control at 400 ppm (Heliothis virescens) | pest or weed control at 100 ppm (Ctenocephalides felis) | activity at 400 ppm [1]
